The target of one assay is hNET (Homo sapiens, UniProt P23975). In words: hNET membrane radioligand binding assay (3H-nisoxetine), Assay 1.
Another assay deals with hSERT (Homo sapiens, UniProt P31645). The experiment in a line: hSERT membrane radioligand binding assay (3H-citalopram), Assay 1. The following applies: SERT pKi, hSERT HEK-293 membranes, 1.0 nM 3H-citalopram; values given as lower bounds.

Each structure is given as a SMILES string.

Sequence of hNET (P23975 whole entry): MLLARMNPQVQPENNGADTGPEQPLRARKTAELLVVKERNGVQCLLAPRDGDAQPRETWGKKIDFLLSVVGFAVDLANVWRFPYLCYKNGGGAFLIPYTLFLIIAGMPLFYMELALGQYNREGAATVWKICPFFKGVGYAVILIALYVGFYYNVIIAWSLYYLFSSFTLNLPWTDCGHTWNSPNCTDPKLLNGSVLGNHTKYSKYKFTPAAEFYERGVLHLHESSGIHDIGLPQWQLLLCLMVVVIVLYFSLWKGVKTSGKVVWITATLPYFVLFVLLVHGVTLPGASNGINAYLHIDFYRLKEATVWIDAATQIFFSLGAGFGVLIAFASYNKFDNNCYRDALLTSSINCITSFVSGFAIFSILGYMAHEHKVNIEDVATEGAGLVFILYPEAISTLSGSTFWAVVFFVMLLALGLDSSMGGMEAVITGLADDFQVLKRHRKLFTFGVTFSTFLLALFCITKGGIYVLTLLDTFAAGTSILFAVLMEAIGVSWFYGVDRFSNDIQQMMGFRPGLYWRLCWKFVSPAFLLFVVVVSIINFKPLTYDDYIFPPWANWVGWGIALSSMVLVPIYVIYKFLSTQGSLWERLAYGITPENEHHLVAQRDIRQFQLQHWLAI
Sequence of hSERT (P31645 whole entry): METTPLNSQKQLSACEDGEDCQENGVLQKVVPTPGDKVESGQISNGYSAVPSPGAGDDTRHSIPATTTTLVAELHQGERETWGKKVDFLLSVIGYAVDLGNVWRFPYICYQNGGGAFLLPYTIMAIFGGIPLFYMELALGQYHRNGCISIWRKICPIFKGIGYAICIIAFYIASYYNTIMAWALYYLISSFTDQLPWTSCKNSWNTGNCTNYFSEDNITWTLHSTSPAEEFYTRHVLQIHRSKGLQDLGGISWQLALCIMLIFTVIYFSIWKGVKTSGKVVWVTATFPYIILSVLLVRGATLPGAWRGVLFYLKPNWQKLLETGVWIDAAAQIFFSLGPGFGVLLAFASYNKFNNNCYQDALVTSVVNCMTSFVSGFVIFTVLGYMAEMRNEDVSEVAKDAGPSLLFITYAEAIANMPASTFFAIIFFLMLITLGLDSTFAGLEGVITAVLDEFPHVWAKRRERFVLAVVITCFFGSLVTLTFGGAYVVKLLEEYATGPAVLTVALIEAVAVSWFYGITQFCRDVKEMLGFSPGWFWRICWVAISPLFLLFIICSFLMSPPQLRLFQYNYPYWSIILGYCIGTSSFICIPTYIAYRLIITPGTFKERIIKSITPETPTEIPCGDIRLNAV

Take `Cc1cc(Cl)ccc1O[C@@H](C1CC1)[C@@H]1CCNC1` [Example 16-31, (R)-3-[(S)-(4-Chloro-2-methylphenoxy)cyclopropylmethyl]pyrrolidine]: the Ki (in general, a dissociation constant, usually derived from enzyme kinetics or from competition with a known ligand) at hNET was no more than 100 nM; on hSERT it was no more than 10 nM.

Turning to `CCC[C@@H](Oc1ccc(Cl)cc1C)[C@H]1CCNC1` [Example 4-60, (S)-3-[(R)-1-(4-Chloro-2-methylphenoxy)butyl]pyrrolidine], the figures for the Ki on hNET and at hSERT were no more than 100 nM and no more than 10 nM, respectively.

Turning to `CCC[C@@H](Oc1ccccc1Cl)[C@@H]1CCNC1` [Example 4-22, (R)-3-[(R)-1-(2-Chlorophenoxy)butyl]pyrrolidine], the Ki on hNET is no more than 10 nM; on hSERT, no more than 100 nM.

`CC(C)C[C@H](Oc1ccc(Cl)cc1Cl)[C@@H]1CCNC1` [Example 10-43, (R)-3-[(S)-1-(2,4-Dichlorophenoxy)-3-methylbutyl]pyrrolidine]: the results for the Ki at hNET and at hSERT were no more than 100 nM and no more than 10 nM, respectively.

For the molecule `CC[C@H](Oc1ccccc1OC)[C@H]1CCNC1` [Example 2-67, (S)-3-[(S)-1-(2-Methoxyphenoxy)propyl]pyrrolidine], the results for the Ki at hNET and at hSERT were no more than 10 nM and no more than 100 nM, respectively.

`CSc1ccccc1O[C@H](C1CC1)[C@H]1CCNC1` [Example 16-4, (S)-3-[(R)cyclopropyl-(2-methylsulfanylphenoxy)methyl]pyrrolidine]: the Ki at hNET was no more than 10 nM; at hSERT, no more than 100 nM.

With `Cc1cc(Cl)ccc1O[C@H](C1CC1)[C@H]1CCNC1` [Example 16-30, (S)-3-[(R)-(4-Chloro-2-methylphenoxy)cyclopropylmethyl]pyrrolidine], the Ki on hNET was no more than 100 nM; on hSERT it was no more than 10 nM.

For `CC(C)C(Oc1ccc(F)cc1)C1CCNC1` (stereo not shown) [Example 6-73, 3-[1-(4-Fluorophenoxy)-2-methylpropyl]pyrrolidine], the Ki on hNET and at hSERT was no more than 100 nM throughout.

On to `CC[C@@H](Oc1c(Cl)ccc(C)c1F)[C@H]1CCNC1` [Example 2-54, (S)-3-[(R)-1-(6-Chloro-2-fluoro-3-methylphenoxy)propyl]pyrrolidine], for which the Ki at hNET is no more than 10 nM; on hSERT, no more than 100 nM.

As to `CC[C@H](Oc1ccc(C(F)(F)F)cc1)[C@H]1CCNC1` [Example 2-17, (S)-3-[(S)-1-(4-Trifluoromethylphenoxy)propyl]pyrrolidine], the Ki at hNET is no more than 100 nM; on hSERT it was no more than 10 nM.

Regarding `CC(C)[C@H](Oc1cccc(F)c1)[C@H]1CCNC1` [Example 6-54, (S)-3-[(S)-1-(3-Fluorophenoxy)-2-methylpropyl]pyrrolidine], the Ki on hNET was no more than 10 nM; at hSERT, no more than 100 nM.

Consider `Fc1ccccc1O[C@H](C1CCCCC1)[C@H]1CCNC1` [Example 20-1, (S)-3-[(R)-Cyclohexyl-(2-fluorophenoxy)methyl]pyrrolidine], for which the Ki is no more than 10 nM on hNET and no more than 100 nM on hSERT.

On to `CC(C)C(Oc1ccc(C(F)(F)F)cc1)C1CCNC1` (stereo not shown) [Example 6-77, 3-[2-Methyl-1-(4-trifluoromethylphenoxy)propyl]pyrrolidine], for which the results for the Ki on hNET and at hSERT were no more than 100 nM and no more than 10 nM, respectively.

As for `CCC[C@H](Oc1ccc(Cl)cc1C(F)(F)F)[C@@H]1CCNC1` [Example 4-66, (R)-3-[(S)-1-(4-Chloro-2-trifluoromethylphenoxy)butyl]pyrrolidine], the Ki at hNET is no more than 100 nM; on hSERT, no more than 10 nM.

`CCCC[C@@H](Oc1ccc(Cl)cc1C(F)(F)F)[C@H]1CCNC1` [Example 8-11, (S)-3-[(R)-1-(4-Chloro-2-trifluoromethylphenoxy)pentyl]pyrrolidine]: the Ki on hNET and at hSERT was no more than 10 nM in each case.

For `COc1cc(F)ccc1O[C@H](C1CC1)[C@H]1CCNC1` [Example 16-39, (S)-3-[(R)cyclopropyl-(4-fluoro-2-methoxyphenoxy)methyl]pyrrolidine], the results for the Ki at hNET and at hSERT were no more than 100 nM and no more than 10 nM, respectively.

As to `COc1ccccc1OC(C1CCCCC1)C1CCNC1` (stereo not shown) [Example 20-2, 3-[Cyclohexyl-(2-methoxyphenoxy)methyl]pyrrolidine], the Ki on hNET and on hSERT was no more than 100 nM in each case.

Values taken from US7994209B2, “3-phenoxymethylpyrrolidine compounds” (Theravance, Inc., priority 2009, dated 2011).
